Assay results taken from patent US9297017B2, “Methods and compositions for targeted protein degradation” (University of Washington, priority 2010, dated 2016).
pKd: −log10 of the molar value. Like-named read-outs stand apart in the source and are kept apart here.

What was measured:
full-length JAZ1 = target: T1, full-length JAZ1 (Arabidopsis thaliana, UniProt Q9LMA8); assay: Radioligand binding of 3H-coronatine to full-length JAZ1 alone
T1 construct: 6xHis; made in house; host or cells: Escherichia coli
T1 sequence (Q9LMA8 1-253): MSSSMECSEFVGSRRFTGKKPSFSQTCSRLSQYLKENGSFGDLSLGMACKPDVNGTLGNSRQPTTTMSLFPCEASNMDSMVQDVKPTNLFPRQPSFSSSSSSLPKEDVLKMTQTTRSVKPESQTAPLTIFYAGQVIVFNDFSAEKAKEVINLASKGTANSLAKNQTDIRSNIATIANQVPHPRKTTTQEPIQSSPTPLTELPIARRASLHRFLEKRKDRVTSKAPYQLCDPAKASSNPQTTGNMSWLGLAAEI
Description: (§1) (^3H)-labeled coronatine was synthesized by Amersham. Full-length Arabidopsis thaliana COI1 and ASK1 were co-expressed as a glutathione S-transferase (GST) fusion protein and an untagged protein, respectively, in Hi5 suspension insect cells. The COI1/ASK1 complex was isolated from the soluble cell lysate by glutathione affinity chromatography. After on-column tag cleavage by tobacco etch virus protease, the complex was further purified by anion exchange and gel filtration chromatography and concentrated by ultrafiltration to 12-18 mg ml^−1. Full-length JAZ substrate proteins were expressed as 6×His-fusion proteins in Escherichia coli and purified on Ni-NTA resin with subsequent dialysis into 20 mM Tris-HCl, pH 8.0, 200 mM NaCl, and 10% glycerol.
(§2) Radioligand binding was assayed on purified proteins, with 2 mg COI1/ASK1 complex and JAZ proteins at a 1:3 molar ratio. […] Nonspecific binding was determined in the presence of […] coronatine. Competition binding experiments were conducted with serial dilutions of JA-Ile in the presence of 100 nM ^3H coronatine with nonspecific binding determined in the presence of […] coronatine. Total binding was determined in the presence of vehicle only. Two-point binding experiments were performed in the presence of 100 nM or 300 nM ^3H-coronatine with nonspecific binding determined in the presence of 300 mM coronatine. […]

COI1/JAZ1 co-receptor = target: T2, COI1/JAZ1 co-receptor (Arabidopsis thaliana, UniProt O04197+Q9LMA8); assay: Ligand-binding based reconstitution assay (inositol phosphate rescue) with dialyzed COI1/ASK1 and JAZ1
T2 construct: Full-length Arabidopsis thaliana COI1 and ASK1 were co-expressed; Full-length JAZ substrate proteins were expressed as 6×His-fusion proteins in Escherichia coli; GST (cleaved yes); 6xHis; made in house; host or cells: Hi5 insect cells (COI1/ASK1); Escherichia coli (JAZ1)
T2 sequence (O04197 1-592): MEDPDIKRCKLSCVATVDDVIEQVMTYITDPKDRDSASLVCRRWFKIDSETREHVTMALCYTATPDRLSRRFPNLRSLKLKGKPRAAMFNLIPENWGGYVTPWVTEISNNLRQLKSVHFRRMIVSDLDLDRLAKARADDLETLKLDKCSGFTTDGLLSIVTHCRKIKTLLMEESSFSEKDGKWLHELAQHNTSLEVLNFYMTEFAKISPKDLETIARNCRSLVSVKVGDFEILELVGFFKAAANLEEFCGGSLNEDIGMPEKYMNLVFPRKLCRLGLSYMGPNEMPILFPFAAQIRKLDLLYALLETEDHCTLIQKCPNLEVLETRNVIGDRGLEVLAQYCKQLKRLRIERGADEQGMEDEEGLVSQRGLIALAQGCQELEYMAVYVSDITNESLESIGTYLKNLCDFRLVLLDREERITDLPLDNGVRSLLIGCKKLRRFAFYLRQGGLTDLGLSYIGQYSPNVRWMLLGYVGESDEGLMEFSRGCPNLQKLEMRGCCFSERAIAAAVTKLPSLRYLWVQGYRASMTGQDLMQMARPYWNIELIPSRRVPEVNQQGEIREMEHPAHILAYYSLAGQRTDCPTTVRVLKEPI
T2 sequence (Q39255 1-160 partner): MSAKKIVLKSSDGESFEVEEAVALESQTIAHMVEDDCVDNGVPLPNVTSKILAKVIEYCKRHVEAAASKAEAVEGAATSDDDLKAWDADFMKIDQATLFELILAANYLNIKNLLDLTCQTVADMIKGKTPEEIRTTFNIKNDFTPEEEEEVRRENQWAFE
T2 sequence (Q9LMA8 1-253): T1 sequence (Q9LMA8 1-253)
Description: Radioligand binding was assayed on purified proteins, with 2 mg COI1/ASK1 complex and JAZ proteins at a 1:3 molar ratio. Reactions were prepared in […] final volume and in a binding buffer containing 20 mM Tris-HCl 200 mM NaCl, and 10% glycerol. Saturation binding experiments were conducted with serial dilutions of 3H-coronatine in binding buffer. Nonspecific binding was determined in the presence of […] coronatine. Competition binding experiments were conducted with serial dilutions of JA-Ile in the presence of 100 nM ^3H coronatine with nonspecific binding determined in the presence of […] coronatine. Total binding was determined in the presence of vehicle only. Two-point binding experiments were performed in the presence of 100 nM or 300 nM ^3H-coronatine with nonspecific binding determined in the presence of […] coronatine. Following incubation with mixing at 4° C., all samples were collected with a cell harvester (Brandel, Gaithersburg, Md.) on polyethyleneimine (Sigma)-treated filters. Samples were incubated in liquid scintillation fluid for >1 hour before counting with a Packard Tri-Carb 2200 CA liquid scintillation analyzer (Packard Instrument Co.). Saturation binding experiments were analyzed by nonlinear regression, competition binding experiments by nonlinear regression with Ki calculation as described previously (Cheng 1973), and concentration-response data by sigmoidal dose-response curve fitting, all using GraphPad Prism version 4.00 for MacOSX.
To assess the functional role of Ins(1,2,4,5,6)P5 in the COI1/JAZ1 co-receptor, a protocol was developed for stripping the co-purified InsP5 from COI1 without denaturing the protein. Briefly, proteins were mixed with 10% glycerol and incubated in 2 M ammonium phosphate, 100 mM Bis-Tris propane, pH 7.0, 200 mM NaCl, and 10% glycerol at 4° C. for >24 hours with a minimum of 3× buffer changes at 100× sample volume. Samples were then transferred to 20 mM Tris-HCl, pH 8.0, 200 mM NaCl, and 10% glycerol at 4° C. for >24 hours with a minimum of three buffer changes at 100× sample volume. Inositol phosphate rescue experiments were conducted according to the radioligand binding assays described above in the presence of 300 nM ^3H-coronatine with nonspecific binding determined in the presence of 300 μM coronatine.
The resulting COI1/ASK1 complex was tested in a ligand-binding based reconstitution assay. […] From this reconstitution result, it was concluded that Ins(1,2,4,5,6)P5 binding is crucial for the jasmonate coreceptor to perceive the hormone with high sensitivity.

JAZ6F195A/COI1 = target: T3, JAZ6F195A/COI1 (Arabidopsis thaliana, UniProt O04197+Q9C9E3, F195A); assay: Binding of 3H-coronatine (300 nM) to JAZ6F195A/COI1; details: 300 nM 3H-coronatine
T3 construct: Full-length Arabidopsis thaliana COI1 and ASK1 were co-expressed; Full-length JAZ substrate proteins were expressed as 6×His-fusion proteins in Escherichia coli; GST (cleaved yes); 6xHis; made in house; host or cells: Hi5 insect cells (COI1/ASK1); Escherichia coli (JAZ6 F195A)
T3 sequence (O04197 1-592): T2 sequence (O04197 1-592)
T3 sequence (Q9C9E3 1-269 F195A): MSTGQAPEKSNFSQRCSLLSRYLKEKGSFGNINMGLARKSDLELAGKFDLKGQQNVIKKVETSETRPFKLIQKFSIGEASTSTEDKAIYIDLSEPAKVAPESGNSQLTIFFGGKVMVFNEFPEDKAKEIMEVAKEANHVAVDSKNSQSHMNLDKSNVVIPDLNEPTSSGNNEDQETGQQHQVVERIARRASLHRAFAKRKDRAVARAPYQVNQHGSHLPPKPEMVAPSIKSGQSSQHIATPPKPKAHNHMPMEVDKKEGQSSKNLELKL
T3 sequence (Q39255 1-160 partner): T2 sequence (Q39255 1-160 partner)
Description: as §1, §2

## CC[C@H]1C=C(C(=O)N[C@@]2(C(=O)O)C[C@@H]2CC)[C@H]2CCC(=O)[C@H]2C1 [coronatine]
full-length JAZ1
  Binding affinity for JAZ1 alone: minimal binding affinity
full-length JAZ1; listed as 3H-coronatine
  Binding affinity for JAZ1 alone: no appreciable binding affinity
COI1/JAZ1 co-receptor; 1 μM Ins(1,2,4,5,6)P5, read-out: Kd, saturation binding of 3H-coronatine to dialyzed COI1 in the presence of InsP5
  pKd: 7.52
COI1/JAZ1 co-receptor; 1 μM InsP6, read-out: Kd, saturation binding of 3H-coronatine to dialyzed COI1 in the presence of InsP6
  pKd: 7.43
JAZ6F195A/COI1
  High affinity interaction with COI1/JAZ6 after mutation of the conserved phenylalanine to alanine: abolish the high affinity interaction
